These results are taken from patent US4994473A, “Pyridyl containing insecticides” (ICI Americas Inc., priority 1988, dated 1991).

The subject of one assay is Tetranychus urticae. The experiment in a line: Two-spotted mite acaricidal test on pinto bean plants. It counts as in vivo, two-spotted mite Tetranychus urticae (Koch). As to conditions: percent concentration in solution, 5-7 days; for LC50 2-SM A: adults; for LC50 2-SM E: eggs. From the text: Acaricidal Evaluation Test
The two-spotted mite (2SM) [Tetranychus urticae (Koch)]was employed in tests for miticides. The test procedure was as follows:
Pinto bean plants (Phaseolus sp.) approximately 10 cm tall, were transplanted into sandy loam soil in small cups and thoroughly infested with two-spotted mites of mixed ages and sexes. Twenty-four hours later the infested plants were inverted and dipped for 2-3 seconds in 50--50 acetone-water solutions of the test compound. Treated plants were held in the greenhouse, and 5-7 days later mortality was determined for both adult mites and the nymphs hatching from eggs which were on the plants at the time of treatment. Test concentrations ranged from 0.05% downward. The LC-50 value is expressed below in Table II under the headings "2SM-A" (i.e., adults) and "2SM-E" (i.e. eggs) in terms of percent concentration of the test compound in the solution.

The subject of the next assay is Musca domestica. Put plainly: Housefly contact test, mortality after 48 hours. Conditions: μg of the test compound per 25 female flies. It counts as in vivo, Housefly Musca domestica. On the procedure: (§1) The compounds in Table I above were tested for insecticidal activity using the following testing procedures. LC50 values, based on the results of these tests and calculated according to dosage-mortality curves, are expressed in Table II.
The test compound was diluted in acetone and aliquots pipetted onto the bottom of aluminum dishes. To ensure even spreading of the chemical on the bottom of the dishes, 1 ml of acetone containing 0.01% peanut oil was also added to each dish. After all solvents had evaporated, the dishes were placed in circular cardboard cages containing 25 female houseflies, 1-2 days old. The cages were covered on the bottom with cellophane and on the top with tulle netting, and each contained a sugar-water saturated cotton plug for maintenance of the flies. Mortality was recorded after 48 hours. Test levels ranged from 100 μg/25 female houseflies downward. The LC-50 value is expressed below in Table II under the heading "HF", in terms of μg of the test compound per 25 female flies.

The next assay concerns Aphis fabae. Put plainly: Black bean aphid spray test on nasturtium plants, mortality after 48 hours. It is filed as in vivo, Black Bean Aphid Aphis fabae (Scop.). As to conditions: mixed ages, percent of test compound in sprayed solution. The method, then:
as §1
Black Bean Aphid Aphis fabae (Scop.)
Nasturtium plants (Tropaeolum sp.) approximately 5 cm tall, were transplanted into sandy loam soil in small cups and infested with 25-50 black bean aphids of mixed ages. Twenty-four hours later they were sprayed to the point of runoff with 50--50 acetone-water solutions of the test compound. Treated plants were held in the greenhouse and mortality was recorded after 48 hours. Test concentrations ranged from 0.05% downward. The LC-50 value is expressed below in Table II under the heading "BA" in terms of percent of the test compound in the sprayed solution.

For the next assay, the system named is Trichoplusia ni. The experiment in a line: Cabbage looper larvae leaf-dip test. It counts as in vivo, Cabbage Looper Trichoplusia ni (Hubner). Conditions: second instar larvae, percent of test compound in solution, 3-5 days. The method, then: as §1
Cabbage Looper Trichoplusia ni (Hubner)
The test compound was diluted in a 50--50 acetone-water solution Cotyledons of hyzini squash (Calabacita abobrinha), approximately 1×1.5 inches, were immersed in the test solutions for 2-3 seconds and placed on a wire screen to dry. The dried leaves were p1aced in petri dishes containing a moistened piece of filter paper and infested with 5 secondinstar cabbage looper larvae. The dishes were placed in a high humidity chamber. Mortality of the larvae was recorded 3-5 days later. Test concentrations ranged from 0.1% downward. The LC-50 value is expressed below in Table II under the heading "CL" in terms of percent of the test compound in solution.

Assay [1] deals with Diabrotica undecimpunctata undecimpunctata. Put plainly: Western spotted cucumber beetle larvae soil test. It counts as in vivo. As to conditions: Diabrotica eggs/larvae; ppm of the test compound in the soil. On the procedure:
as §1
Western Spotted Cucumber Beetle Larvae Diabrotica undecimpunctata undecimpunctata (Mannherheim)
Ten grams of moist potting soil was placed in a plastic cup. The test compound was dissolved in acetone. A 0.05 ml aliquot of the test sample, diluted to the desired concentration, was added to the soil. The cup was capped and the soil was mixed on a vortex mixer for approximately 15 seconds. An indentation was made on the surface of the soil and approximately 50 Diabrotica eggs were added. The eggs were covered with soil and maintained at room temperature (approximately 70° F. or 21° C.). Four days later a section of Romaine lettuce (Latuca sativa) leaf was placed in the treated cups. One week later the cups were examined for live larvae. Test concentrations ranged from 25 ppm downward. The LC-50 value is expressed below in Table II under the heading "Diabrotica" in terms of ppm of the test compound in the soil.

The test system of the next assay is Heliothis virescens. The experiment in a line: Tobacco budworm egg dip test. It is filed as in vivo, Tobacco Budworm Heliothis virescens (Fabricius). Conditions: 2-day old eggs (TBW-E), percent of test compound in solution. The method, then: as §1
Tobacco Budworm Heliothis virescens (Fabricius)
Eggs: Paper towel patches of 2-day old eggs of the tobacco budworm were dipped in acetone solutions of the test compound and placed in petri dishes containing a portion of larval rearing medium. Treated eggs were maintained at 78° F. and mortality was recorded after all control eggs had hatched and the young larvae were feeding on the media. Test concentrations ranged from 0.1% downward. The LC-50 value is expressed below in Table II under the heading "TBW-E" in terms of percent of the test compound in the solution.

`CC(C)C(=Nc1ccc2nc(-c3ccccc3)oc2c1)OCc1cccc(Oc2ccccc2)c1` [Compound 28]: in the assay on Tetranychus urticae, the “LC50 2-SM A” value is above 0.05% and the “LC50 2-SM E” value is recorded as above 0.05%. The “LC50 HF” value with Musca domestica was above 100 µg. The “LC50 BA” value in the assay with Aphis fabae is above 0.05%. For the same molecule, the “LC50 CL” value with Trichoplusia ni is recorded as 0.04%. Further, the “LC50 Diabrotica” value in assay [1] was above 25 ppm. Also, the “LC50 TBW” value with Heliothis virescens is listed as above 0.1%.
In the case of `C=C(C)C(=Nc1ccc(Cl)nc1)OCc1ccc(F)c(Oc2ccccc2)c1` [Compound 49], in the assay on Tetranychus urticae, the “LC50 2-SM A” value is given as above 0.05% and the “LC50 2-SM E” value is on record as above 0.05%. In the assay on Musca domestica, the “LC50 HF” value was below 100 µg. The “LC50 BA” value in the assay with Aphis fabae was below 0.05%. In the assay with Trichoplusia ni, the “LC50 CL” value was below 0.1%. In assay [1], the “LC50 Diabrotica” value is above 25 ppm. Moreover, the “LC50 TBW” value in the assay on Heliothis virescens is reported as 0.1%.
With `CC(C)C(=Nc1ccc(OCC(F)(F)F)nc1)OCc1cccc(Oc2ccc(Cl)cc2)n1` [Compound 46], in the assay on Tetranychus urticae, the “LC50 2-SM A” value is 0.006% and the “LC50 2-SM E” value is 0.006%. For the same molecule, the “LC50 HF” value in the assay with Musca domestica was below 100 µg. Moreover, the “LC50 BA” value with Aphis fabae is given as 0.0003%. Moreover, the “LC50 CL” value with Trichoplusia ni is reported as 0.00027%. The “LC50 Diabrotica” value in assay [1] is listed as above 25 ppm. In addition, in the assay on Heliothis virescens, the “LC50 TBW” value was determined as 0.017%.
On to `CC(C)C(=Nc1ccc(OCC(F)(F)F)nc1)OCc1cccc(Oc2ccc(F)cc2)c1` [Compound 43], for which, in the assay with Tetranychus urticae, the “LC50 2-SM A” value came out at 0.006% and the “LC50 2-SM E” value is on record as 0.006%. The “LC50 HF” value with Musca domestica is above 100 µg. In addition, the “LC50 BA” value in the assay with Aphis fabae is 0.0003%. For the same molecule, the “LC50 CL” value with Trichoplusia ni is 0.00015%. Besides, the “LC50 Diabrotica” value in assay [1] is above 25 ppm. Further, the “LC50 TBW” value in the assay on Heliothis virescens turned out to be 0.02%.
Regarding `CC(C)C(=Nc1ccc(OCC(F)(F)F)nc1)OCc1ccc(F)c(Oc2ccccc2)c1` [Compound 42], in the assay on Tetranychus urticae, the “LC50 2-SM A” value worked out at 0.006% and the “LC50 2-SM E” value is 0.006%. The “LC50 HF” value in the assay on Musca domestica is below 100 µg. In the assay with Aphis fabae, the “LC50 BA” value worked out at 0.0004%. Also, the “LC50 CL” value with Trichoplusia ni amounted to 0.000075%. For the same molecule, in assay [1], the “LC50 Diabrotica” value is on record as above 25 ppm. In addition, in the assay on Heliothis virescens, the “LC50 TBW” value came out at 0.017%.
Take `CSc1ccc(N=C(OCc2cccc(Oc3ccccc3)c2)C(C)C)cn1` [Compound 38]: in the assay on Tetranychus urticae, the “LC50 2-SM A” value is above 0.05% and the “LC50 2-SM E” value is above 0.05%. The “LC50 HF” value with Musca domestica was below 100 µg. The “LC50 BA” value with Aphis fabae is 0.005%. In the assay on Trichoplusia ni, the “LC50 CL” value is above 0.1%. The “LC50 Diabrotica” value in assay [1] is listed as above 25 ppm. Further, in the assay on Heliothis virescens, the “LC50 TBW” value is above 0.1%.
Take `CC(C)C(=Nc1c(F)c(F)nc(F)c1F)OCc1cccc(Oc2ccccc2)c1` [Compound 6]: in the assay on Tetranychus urticae, the “LC50 2-SM A” value is given as above 0.05% and the “LC50 2-SM E” value is given as above 0.05%. Also, the “LC50 HF” value in the assay with Musca domestica is above 100 µg. Also, the “LC50 BA” value in the assay on Aphis fabae is above 0.05%. The “LC50 CL” value in the assay with Trichoplusia ni was found to be 0.004%. In addition, the “LC50 Diabrotica” value in assay [1] was above 25 ppm. The “LC50 TBW” value with Heliothis virescens is above 0.1%.
Turning to `CC(C)C(=Nc1ccc(Cl)nc1Cl)OCc1cccc(Oc2ccccc2)c1` [Compound 2], in the assay on Tetranychus urticae, the “LC50 2-SM A” value is given as above 0.05% and the “LC50 2-SM E” value was above 0.05%. Also, the “LC50 HF” value in the assay on Musca domestica came out at 18 µg. For the same molecule, the “LC50 BA” value in the assay on Aphis fabae amounted to 0.003%. In the assay on Trichoplusia ni, the “LC50 CL” value turned out to be 0.0027%. The “LC50 Diabrotica” value in assay [1] was above 25 ppm. Moreover, the “LC50 TBW” value in the assay on Heliothis virescens came out at 0.075%.
On to `COc1ccc(N=C(OCc2cccc(Oc3ccccc3)c2)C2CC2)cn1` [Compound 15], for which, in the assay on Tetranychus urticae, the “LC50 2-SM A” value is recorded as above 0.05% and the “LC50 2-SM E” value is recorded as above 0.05%. The “LC50 HF” value in the assay with Musca domestica is 58 µg. Besides, the “LC50 BA” value in the assay with Aphis fabae was above 0.05%. Besides, the “LC50 CL” value with Trichoplusia ni was 0.05%. For the same molecule, in assay [1], the “LC50 Diabrotica” value is recorded as above 25 ppm. Further, in the assay on Heliothis virescens, the “LC50 TBW” value is on record as above 0.1%.
Turning to `CC(C)C(=Nc1ccc(Cl)nc1)SCc1cccc(Oc2ccc(F)cc2)c1` [Compound 29], in the assay with Tetranychus urticae, the “LC50 2-SM A” value is listed as above 0.05% and the “LC50 2-SM E” value was above 0.05%. Besides, in the assay on Musca domestica, the “LC50 HF” value was above 100 µg. In the assay on Aphis fabae, the “LC50 BA” value is recorded as above 0.05%. Moreover, in the assay with Trichoplusia ni, the “LC50 CL” value is given as 0.025%. In addition, in assay [1], the “LC50 Diabrotica” value is recorded as above 25 ppm. Also, in the assay on Heliothis virescens, the “LC50 TBW” value was above 0.1%.
`CC(C)C(=Nc1ccc(F)nc1)OCc1cccc(Oc2ccccc2)c1` [Compound 5]: in the assay with Tetranychus urticae, the “LC50 2-SM A” value was above 0.05% and the “LC50 2-SM E” value is reported as above 0.05%. Moreover, in the assay with Musca domestica, the “LC50 HF” value was found to be 8 µg. In the assay on Aphis fabae, the “LC50 BA” value was determined as 0.003%. Moreover, the “LC50 CL” value in the assay on Trichoplusia ni was found to be 0.008%. Moreover, in assay [1], the “LC50 Diabrotica” value was above 25 ppm. Moreover, the “LC50 TBW” value in the assay with Heliothis virescens is on record as 0.09%.
As for `CC(C)C(=Nc1ccc(OCC(F)(F)F)nc1)OCc1cccc(Oc2ccc(Cl)cc2)c1` [Compound 39], in the assay with Tetranychus urticae, the “LC50 2-SM A” value is given as 0.006% and the “LC50 2-SM E” value is listed as 0.006%. Also, in the assay on Musca domestica, the “LC50 HF” value is above 100 µg. Besides, the “LC50 BA” value in the assay on Aphis fabae worked out at 0.001%. Moreover, the “LC50 CL” value in the assay on Trichoplusia ni is above 0.1%. For the same molecule, the “LC50 Diabrotica” value in assay [1] was above 25 ppm. Further, the “LC50 TBW” value in the assay on Heliothis virescens is 0.02%.
As for `COc1ccc(N=C(OCc2cccc(Oc3ccccc3)c2)C(C)C)cn1` [Compound 3], in the assay on Tetranychus urticae, the “LC50 2-SM A” value is above 0.05% and the “LC50 2-SM E” value is given as above 0.05%. For the same molecule, the “LC50 HF” value with Musca domestica was found to be 7 µg. Moreover, the “LC50 BA” value in the assay on Aphis fabae stood at 0.003%. The “LC50 CL” value in the assay with Trichoplusia ni is 0.0075%. Besides, the “LC50 Diabrotica” value in assay [1] is listed as above 25 ppm. The “LC50 TBW” value in the assay with Heliothis virescens is recorded as above 0.1%.
